Test system: apomorphine-induced disruption of prepulse inhibition
Assay: Prepulse inhibition of acoustic startle model in rats
Format: in vivo
Conditions: rat, 30 mg/kg IP
Text: PROTOCOL FOR THE PREPULSE INHIBITION OF ACOUSTIC STARTLE MODEL IN RATS
Prepulse inhibition (PPI) of acoustic startle is a form of sensorimotor gating which occurs when a weak stimulus precedes a startling stimulus, resulting in diminution of the startle response amplitude. […] Thus, an animal model utilizing this phenomenon would be quite useful in the study of known and potential antipsychotic agents.
This indicates a possible role of DA D2-like receptor stimulation in reducing sensorimotor gating in the rat.
Male Sprague-Dawley rats from Harlan Labs (180-280 g) were housed in groups of five rats per cage and maintained on a 12-hour light/dark cycle with free access to food pellets and water. […]
Eight startle chambers (SR-LAB, San Diego Instruments) were used, each consisting of a Plexiglas cylinder resting on a Plexiglas frame within a ventilated sound-attenuating enclosure. […] The average responses during the 100 msec record window (100×1 msec readings) were recorded by microcomputer and interface assembly (San Diego Instruments). […] Sound levels were assessed with a Radio Shack dB meter. […]
The test session in all experiments consisted of a total of 90 trials after a 5-minute test acclimation period of 70 dB white noise. […] When the prepulse was paired with the 120 dB pulse, no obvious acoustic difference could be detected by the human ear as compared to the 120 dB pulse alone. […]

Question: With Cc1ccc(N2CCN(Cc3ccc4c(c3)NCCN4)CC2)cc1C [Example 2, 6-[4-(3,4-Dimethylphenyl)piperazin-1-ylmethyl]-1,2,3,4-tetrahydroquinoxaline] as the compound, how does the “blockade of apomorphine-induced disruption of prepulse inhibition in the Acoustic Startle test” value read?
Answer: Its value is “significant blockade”.

From patent US5885994A, “Tetrahydroquinoxaline dopamine D4 receptor antagonists” (Warner-Lambert Company, priority 1998, dated 1999)
